{"source": "paper PMC7829762", "about": "“Characterization of a Novel Laccase LAC-Yang1 from White-Rot Fungus Pleurotus ostreatus Strain Yang1 with a Strong Ability to Degrade and Detoxify Chlorophenols” (Molecules, 2021)", "system": "T1, LAC-Yang1", "T1 construct": "native enzyme purified from culture supernatant (Cu2+ and syringic acid induced; ammonium sulfate, DEAE, Phenyl-6FF); only laccase band secreted by this strain", "assay": "absorbance assay, Michaelis-Menten non-linear regression", "type": "biochemical, Pleurotus ostreatus", "settings": "50 mM acetate buffer pH 5.0, 30 °C, free enzyme", "from_the_text": "absorbance assay, Michaelis-Menten non-linear regression on LAC-Yang1"}
{"compound": "2,6-Dimethylphenol [2,6-DMP]", "values": [{"measurement": "Km", "setting": "470 nm, compound identity doubtful: paper spells 2,6-DMP as 2,6-Dimethylphenol, but 470 nm read-out is usual for 2,6-dimethoxyphenol", "value": "120 ± 30", "unit": "µM"}]}
{"compound": "COc1ccccc1O", "note": "[guaiacol]", "values": [{"measurement": "Km", "setting": "465 nm", "value": "810 ± 150", "unit": "µM"}]}
{"compound": "CCn1c(=NN=c2sc3cc(S(=O)(=O)O)ccc3n2CC)sc2cc(S(=O)(=O)O)ccc21", "note": "[ABTS, 2,2′-azino-bis-(3-ethylbenzothiazoline-6-sulfonic acid)]", "values": [{"measurement": "Km", "setting": "420 nm", "value": "150 ± 50", "unit": "µM"}]}
